Measured values from patent US7727988B2, “Azabicyclo[3.1.0]hex-3-yl}alkyl)pyrimidinedione” (Glaxo Group Limited, priority 2006, dated 2010).

Target: T1, dopamine D3 receptor (Homo sapiens, UniProt P35462)
T1 construct: host or cells: Chinese Hamster Ovary (CHO) cells, membranes
Assay: GTPS scintillation proximity assay (GTPS-SPA), CHO_D3 membranes, antagonist format
Assay type: biochemical
Procedure: Functional potency of compounds of this invention can be measured by the following GTPS scintillation proximity assay (GTPS-SPA). Cells used in the study are Chinese Hamster Ovary (CHO) Cells. • Cell Line • CHO_D2 • CHO_D3 • Dopamine CHO D3 (Biocat no 1060) transduced with bacmam G0 G-protein (Biocat no 97886)
All steps are performed at 4° C. Cell membranes are prepared as follows. Cell pellets are resuspended in 10 volumes of 50 mM HEPES, 1 mM EDTA pH 7.4, using KOH. Cells are homogenised within a glass waring blender for 2 bursts of 15 secs in 200 mls of buffer (50 mM HEPES, 1 mM leupeptin, 25 μg/ml bacitracin, 1 mM EDTA, 1 mM PMSF, 2 μM Pepstatin A). (the latter 2 reagents added as fresh ×100 and ×500 stocks respectively in ethanol). The blender is plunged into ice for 5 mins after the first burst and 10-40 mins after the final burst to allow foam to dissipate. The material is then spun at 500 g for 20 mins and the supernatant spun for 36 mins at 48.000 g. The pellet is resuspended in the same buffer as above but without PMSF and Pepstatin A. The material is then forced through a 0.6 mm needle, made up to the required volume, (usually ×4 the volume of the original cell pellet), aliquoted and stored frozen at −80° C.
The final top concentration of test drug is 3 μM in the assay and 11 points serial dilution curves 1:4 in 100% DMSO are carried out using a Biomek FX. The test drug at 1% (0.5 ul) total assay volume (TAV) is added to a solid, white Greiner polypropylene 384-well assay plate. 50% TAV (25 μl) of precoupled (for 60 mins at RT) membranes, 5 μg/well, and Wheatgerm Agglutinin Polystyrene Scintillation Proximity Assay beads (RPNQ0260, Amersham), 0.25 mg/well, in 20 mM HEPES (pH 7.4, 100 mM NaCl, 10 mM MgCl2), 60 μg/mL saponin and 30 uM GDP is added. The third addition is a 20% TAV (10 ul) addition of either buffer, (agonist format) or EC80 final assay concentration of agonist, Quinelorane, prepared in assay buffer (antagonist format). The assay is started by the addition of 29% TAV (15 ul) of GTP[35S] 0.38 nM final (37 MBq/mL, 1160 Ci/mmol, Amersham). After all additions assay plates are spun down for 1 min at 1,000 rpm. The final assay cocktail ([…]) is incubated at room temperature to equilibrate for 3-6 hours before reading on a ViewLux™ (613/55 filter) luminescence imager 5 min/plate.
The effect of the test drug over the basal generates fpKi values of test drug are calculated from the IC50 generated by “antagonist format” experiment, using Cheng & Prusoff equation: fKi=IC50/1+([A]/EC50) where: [A] is the concentration of the agonist Quinelorane in the assay and EC50 is the Quinelorane EC50 value obtained in the same experiment. fpKi is defined as −logfKi. • pKi results are only estimated to be accurate to about 0.3-0.5.

T1 sequence (P35462 whole entry, species assumed): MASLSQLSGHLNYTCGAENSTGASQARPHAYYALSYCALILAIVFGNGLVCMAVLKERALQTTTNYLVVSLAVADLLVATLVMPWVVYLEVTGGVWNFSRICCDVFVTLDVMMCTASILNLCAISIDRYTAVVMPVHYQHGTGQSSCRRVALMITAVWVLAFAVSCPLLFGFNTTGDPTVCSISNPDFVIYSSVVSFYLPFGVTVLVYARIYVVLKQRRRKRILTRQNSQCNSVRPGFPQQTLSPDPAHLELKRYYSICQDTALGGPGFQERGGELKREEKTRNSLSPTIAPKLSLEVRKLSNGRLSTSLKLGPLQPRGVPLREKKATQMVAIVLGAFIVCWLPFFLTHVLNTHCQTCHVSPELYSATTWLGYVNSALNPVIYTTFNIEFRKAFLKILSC

- Selectivity for D3 over D2 receptors: 316 fold
Compound: Cc1cc(-c2cn(CCCCN3C[C@@H]4C[C@]4(c4ccc(C(F)(F)F)cc4)C3)c(=O)[nH]c2=O)ccn1.Cl.Cl [Example E28, 5-(2-methyl-4-pyridinyl)-1-(4-{(1S,5R)-1-[4-(trifluoromethyl)phenyl]-3-azabicyclo[3.1.0]hex-3-yl}butyl)-2,4(1H,3H)-pyrimidinedione dihydrochloride]
